Experimental data taken from ChEMBL document CHEMBL1201862, “PubChem BioAssay data set” (2004).
Activity calls are given as the source filed them.

Assays:
[1] = target: T1, Apoptotic protease-activating factor 1 (Homo sapiens, UniProt O14727); assay type: functional
T1 sequence (O14727 whole entry): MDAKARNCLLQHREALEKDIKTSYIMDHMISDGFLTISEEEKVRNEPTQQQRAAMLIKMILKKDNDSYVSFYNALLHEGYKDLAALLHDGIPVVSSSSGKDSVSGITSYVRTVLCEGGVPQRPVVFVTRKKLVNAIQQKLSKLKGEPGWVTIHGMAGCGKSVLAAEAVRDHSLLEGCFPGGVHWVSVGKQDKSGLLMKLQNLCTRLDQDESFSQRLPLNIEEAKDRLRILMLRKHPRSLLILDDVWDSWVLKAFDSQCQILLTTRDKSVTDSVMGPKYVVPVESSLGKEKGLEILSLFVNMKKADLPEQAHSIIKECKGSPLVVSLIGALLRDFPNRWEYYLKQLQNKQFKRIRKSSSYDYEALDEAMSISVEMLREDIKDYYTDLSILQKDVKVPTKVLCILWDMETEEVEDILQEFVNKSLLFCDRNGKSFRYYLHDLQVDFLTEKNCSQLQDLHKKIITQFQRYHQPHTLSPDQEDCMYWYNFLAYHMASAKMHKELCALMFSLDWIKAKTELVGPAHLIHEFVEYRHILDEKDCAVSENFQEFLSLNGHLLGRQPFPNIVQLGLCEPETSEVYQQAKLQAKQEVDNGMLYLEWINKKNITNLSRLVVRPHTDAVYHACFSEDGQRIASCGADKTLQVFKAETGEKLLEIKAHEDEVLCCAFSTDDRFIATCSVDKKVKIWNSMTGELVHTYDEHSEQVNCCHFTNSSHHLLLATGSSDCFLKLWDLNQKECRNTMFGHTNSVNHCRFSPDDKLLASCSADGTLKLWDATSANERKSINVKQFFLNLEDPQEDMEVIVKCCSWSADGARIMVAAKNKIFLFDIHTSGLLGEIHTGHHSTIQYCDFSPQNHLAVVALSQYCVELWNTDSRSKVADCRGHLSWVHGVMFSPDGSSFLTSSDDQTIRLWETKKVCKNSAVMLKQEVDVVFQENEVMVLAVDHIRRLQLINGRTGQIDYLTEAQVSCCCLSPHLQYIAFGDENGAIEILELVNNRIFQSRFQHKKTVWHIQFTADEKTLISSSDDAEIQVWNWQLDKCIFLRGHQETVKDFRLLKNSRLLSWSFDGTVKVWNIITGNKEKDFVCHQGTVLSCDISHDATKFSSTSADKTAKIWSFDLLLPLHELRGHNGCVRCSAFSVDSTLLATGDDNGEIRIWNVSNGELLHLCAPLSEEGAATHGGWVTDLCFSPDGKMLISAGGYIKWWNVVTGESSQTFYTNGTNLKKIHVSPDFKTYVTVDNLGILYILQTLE

[2] = target: Beta-2 adrenergic receptor (Homo sapiens, UniProt P07550); assay: beta2AR agonists driving receptor internalization, dose response, cell-based, FAP fluorogen, flow cytometry, cherry pick 1 (AID 588763); assay type: functional
Sequence of Beta-2 adrenergic receptor (P07550 whole entry): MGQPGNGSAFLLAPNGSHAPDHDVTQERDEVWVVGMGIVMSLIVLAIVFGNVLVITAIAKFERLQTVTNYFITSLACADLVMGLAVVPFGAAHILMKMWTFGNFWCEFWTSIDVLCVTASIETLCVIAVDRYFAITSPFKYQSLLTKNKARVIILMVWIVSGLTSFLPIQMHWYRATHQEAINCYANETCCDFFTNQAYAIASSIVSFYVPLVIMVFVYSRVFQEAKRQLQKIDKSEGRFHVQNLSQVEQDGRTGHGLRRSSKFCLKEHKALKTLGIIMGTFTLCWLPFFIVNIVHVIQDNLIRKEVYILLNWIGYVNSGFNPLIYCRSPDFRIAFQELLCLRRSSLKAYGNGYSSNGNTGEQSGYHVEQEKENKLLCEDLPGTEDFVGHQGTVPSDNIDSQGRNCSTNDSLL

Large T antigen = Large T antigen (Simian virus 40, UniProt P03070); assay type: functional, Betapolyomavirus macacae;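 also: Confirmatory-stage PubChem screen for compounds that inhibit SV40 T antigen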
Sequence of Large T antigen (P03070 whole entry): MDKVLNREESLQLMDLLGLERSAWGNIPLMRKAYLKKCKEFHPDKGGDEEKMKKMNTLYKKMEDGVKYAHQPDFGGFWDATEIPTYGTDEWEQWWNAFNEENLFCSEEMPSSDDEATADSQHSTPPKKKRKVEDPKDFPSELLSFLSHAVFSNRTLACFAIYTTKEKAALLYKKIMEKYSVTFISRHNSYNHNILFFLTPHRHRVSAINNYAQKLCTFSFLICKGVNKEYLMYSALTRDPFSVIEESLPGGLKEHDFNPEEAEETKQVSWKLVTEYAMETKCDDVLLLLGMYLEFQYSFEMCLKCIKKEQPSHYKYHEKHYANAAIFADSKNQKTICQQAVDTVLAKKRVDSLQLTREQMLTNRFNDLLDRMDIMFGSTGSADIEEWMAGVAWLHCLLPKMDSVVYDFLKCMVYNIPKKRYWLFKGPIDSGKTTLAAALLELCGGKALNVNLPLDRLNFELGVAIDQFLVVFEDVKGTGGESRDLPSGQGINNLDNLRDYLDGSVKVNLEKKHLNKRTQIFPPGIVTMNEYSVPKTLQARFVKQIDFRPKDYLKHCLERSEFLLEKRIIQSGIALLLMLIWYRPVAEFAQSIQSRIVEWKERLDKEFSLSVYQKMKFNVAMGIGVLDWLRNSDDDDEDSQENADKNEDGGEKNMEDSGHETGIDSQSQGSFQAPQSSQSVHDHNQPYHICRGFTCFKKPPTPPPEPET

Streptococcus = assay: Group A Streptococcus viability loss, dose response, counter-screen for streptokinase expression inhibitor project, luminescence, BacTiterGlo (AID 1915); assay type: functional, organism-based;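 also: potency for reduction of bacterial viability or growth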
[3] = test system: Streptococcus sp. 'group A'; assay: growth inhibition of control SK(-) GAS strain, dose response, counter-screen for streptokinase expression inhibitor project, luminescence, kanamycin, BacTiterGlo, confirmation (AID 1900); assay type: functional, organism-based
HEK293 [4] = assay: optical interference in Abeta FP readout, dose response, artefact control for IDE activator project, biochemical, fluorescence polarization (AID 588442); assay type: functional, cell-based; details: Homo sapiens
Streptokinase A = target: T2, Streptokinase A (Streptococcus pyogenes serotype M1, UniProt P10520); assay: S. pyogenes streptokinase expression inhibitors, potency, dose response, plasminogen activation absorbance, OD405 (AID 1914); assay type: functional, Streptococcus pyogenes M1 GAS;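 also: secreted streptokinase activity via plasminogen activation per viability signal from cell pellet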
T2 sequence (P10520 whole entry): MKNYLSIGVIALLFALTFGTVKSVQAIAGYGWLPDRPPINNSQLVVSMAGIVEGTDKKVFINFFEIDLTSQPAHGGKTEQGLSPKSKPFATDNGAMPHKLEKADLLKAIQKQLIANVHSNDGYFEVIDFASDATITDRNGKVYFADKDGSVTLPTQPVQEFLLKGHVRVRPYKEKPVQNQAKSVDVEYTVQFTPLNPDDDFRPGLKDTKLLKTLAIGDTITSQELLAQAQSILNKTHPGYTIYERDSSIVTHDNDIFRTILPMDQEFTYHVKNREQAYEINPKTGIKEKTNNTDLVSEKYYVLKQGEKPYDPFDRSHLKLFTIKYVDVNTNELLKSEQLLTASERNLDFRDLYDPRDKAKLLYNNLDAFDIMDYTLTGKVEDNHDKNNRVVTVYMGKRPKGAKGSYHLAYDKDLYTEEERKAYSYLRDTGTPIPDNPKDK

Insulin-degrading enzyme [5] = target: T3, Insulin-degrading enzyme (Homo sapiens, UniProt P14735); assay: activators of endogenous IDE in HEK cells, dose response, cell-based, fluorescence polarization (AID 588439); assay type: functional
T3 sequence (P14735 whole entry): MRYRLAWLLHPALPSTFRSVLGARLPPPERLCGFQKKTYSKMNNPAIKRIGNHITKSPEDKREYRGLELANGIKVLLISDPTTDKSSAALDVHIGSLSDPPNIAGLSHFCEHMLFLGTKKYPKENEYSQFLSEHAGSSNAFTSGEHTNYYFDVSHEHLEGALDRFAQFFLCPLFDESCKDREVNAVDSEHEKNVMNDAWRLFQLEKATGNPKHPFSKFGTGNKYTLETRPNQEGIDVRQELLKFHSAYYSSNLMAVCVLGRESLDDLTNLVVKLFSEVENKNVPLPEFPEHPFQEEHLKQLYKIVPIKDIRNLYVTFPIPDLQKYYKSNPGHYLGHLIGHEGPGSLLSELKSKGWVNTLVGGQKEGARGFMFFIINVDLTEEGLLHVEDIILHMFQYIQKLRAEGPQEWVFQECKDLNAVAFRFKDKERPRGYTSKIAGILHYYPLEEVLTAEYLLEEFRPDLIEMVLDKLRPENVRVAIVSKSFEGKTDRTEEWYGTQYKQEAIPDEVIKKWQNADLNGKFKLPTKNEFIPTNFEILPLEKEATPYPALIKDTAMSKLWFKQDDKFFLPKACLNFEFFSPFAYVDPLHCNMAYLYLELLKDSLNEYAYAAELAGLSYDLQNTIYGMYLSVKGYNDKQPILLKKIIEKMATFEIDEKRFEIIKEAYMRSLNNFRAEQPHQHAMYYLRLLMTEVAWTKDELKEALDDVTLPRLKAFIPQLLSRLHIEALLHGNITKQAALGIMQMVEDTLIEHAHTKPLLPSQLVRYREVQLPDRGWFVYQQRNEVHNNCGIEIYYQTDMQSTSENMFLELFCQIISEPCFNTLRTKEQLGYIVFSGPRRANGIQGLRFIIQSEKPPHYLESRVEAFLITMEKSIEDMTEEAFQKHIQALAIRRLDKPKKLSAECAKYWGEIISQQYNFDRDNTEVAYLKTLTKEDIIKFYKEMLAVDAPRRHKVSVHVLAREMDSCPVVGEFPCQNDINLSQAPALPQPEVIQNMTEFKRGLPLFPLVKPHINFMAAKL

[6] = target: Heat shock protein HSP 90-alpha (Homo sapiens, UniProt P07900); assay type: functional, organism-based
Insulin-degrading enzyme [7] = target: T3, Insulin-degrading enzyme; assay: activators of recombinant IDE enzyme, dose response, counter-screen for IDE activator project, biochemical, fluorescence polarization (AID 588681)
HEK293 [8] = assay: HEK cell cytotoxicity by LDH release, dose response, cytotoxicity control for IDE activator project, fluorescence, HEK cells (AID 588440); assay type: functional, cell-based; details: Homo sapiens;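 also: cytotoxicity by LDH release measuring loss of membrane integrity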

SMILES: CCC(CN(C)C)Oc1cc(NCc2ccccc2)c2ncn(C(C)C)c2c1 (configuration not stated)
- IC50 [1]: 7.98 µM (active)

SMILES: CC(=O)c1cccc(S(=O)(=O)N2CCCC(c3nc(-c4ccc(C)o4)no3)C2)c1 (configuration not stated)
- EC50 [2]: 0.143 µM (active)
- IC50 (Large T antigen): 36.4 µM (active)

SMILES: Oc1cc(OCc2ccccc2)ccc1-c1[nH]ncc1-c1ccccc1
- EC50 (Streptococcus): 10.5 µM (active)
- EC50 [3]: 2.88 µM (active)
- EC50 (HEK293 [4]): > 55.9 µM (inactive)
- EC50 (Streptokinase A): > 150 µM (not active)
- EC50 (Insulin-degrading enzyme [5]): > 54.7 µM (inactive)
- AC50 [6]: 9.12 µM (active)
- EC50 (Insulin-degrading enzyme [7]): > 54.7 µM (inactive)
- IC50 (HEK293 [8]): 16.9 µM (inactive)

SMILES: Cc1ccc(C(=O)OCC(=O)Nc2nc(-c3ccccc3)cs2)cc1NC(=O)c1ccco1
- EC50 [2]: 1.41 µM (active)
